Laboratory results from patent US20240238425A1, “HSD17B13 Inhibitors and/or Degraders” (Pfizer Inc., priority 2022, published 2024).
Counter-ions that a name gives are not always drawn.

System: HiBiT-HSD17β13 fusion protein (N-terminal HiBiT-tagged HSD17β13 isoform D) in Huh7 HiBiT-HSD17β13 OE cells
Assay: Whole-cell Huh7-HSD17B13 HiBiT assay (degrader potency and maximal efficacy, luminescence readout)
Format: cell-based, human
Conditions: 24 hour incubation, geometric mean, * = geometric mean for all forms tested (parent and salt forms); for DC50: read-out: Huh7_HIBIT-HSD17β13_DC50 GMean DC50; for Huh7_HIBIT-HSD17β13_DC50 GMean Asymptote Maximum: max. concentration 1 μM
In short: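 Huh7 cells stably overexpressing N-terminal HiBiT-tagged HSD17β13 isoform D, clone matched to primary hepatocyte expression, were exposed to an 11-point, 1 in 3.162 dilution series (top 1 μM final) for 24 h at 37° C. Lytic HiBiT luminescence was normalised to DMSO and parental-cell controls; DC50 from four-parameter logistic fit, with CellTiter-Glo counter screen.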

Row | SMILES | DC50 [nM] | Huh7_HIBIT-HSD17β13_DC50 GMean Asymptote Maximum
1 | O=C1CCN(c2cnn3cc(CCN4CCN(c5ncc(-c6ccc7cn([C@H]8CC[C@H](CNC(=O)c9cc(F)c(O)c(F)c9F)CC8)nc7c6)cn5)CC4)ccc23)C(=O)N1 [Example 54, N-{[(1r,4r)-4-{6-[2-(4-{2-[3-(2,4-dioxo-1,3-diazinan-1-yl)pyrazolo[1,5-a]pyridin-6-yl]ethyl}piperazin-1-yl)pyrimidin-5-yl]-2H-indazol-2-yl}cyclohexyl]methyl}-2,3,5-trifluoro-4-hydroxybenzamide, trifluoroacetate salt] | 0.64 | 83%
2 | Cc1ccc(C(=O)N2CCC(OC3CCN(c4ncc(-c5ccc6cn([C@H]7CC[C@H](CNC(=O)c8cc(F)c(O)c(F)c8F)CC7)nc6c5)cn4)CC3)CC2)cc1N1CCC(=O)NC1=O [Example 57, N-{[(1r,4r)-4-(6-{2-[4-({1-[3-(2,4-dioxo-1,3-diazinan-1-yl)-4-methylbenzoyl]piperidin-4-yl}oxy)piperidin-1-yl]pyrimidin-5-yl}-2H-indazol-2-yl)cyclohexyl]methyl}-2,3,5-trifluoro-4-hydroxybenzamide, trifluoroacetate salt] | 4.8 | 76%
3 | Cc1ccc(C(=O)N2CCC3(CCN(c4ncc(-c5ccc6cn([C@H]7CC[C@H](CNC(=O)c8cc(F)c(O)c(F)c8F)CC7)nc6c5)cn4)CC3)C2)cc1N1CCC(=O)NC1=O [Example 58, N-({(1r,4r)-4-[6-(2-{2-[3-(2,4-dioxo-1,3-diazinan-1-yl)-4-methylbenzoyl]-2,8-diazaspiro[4.5]decan-8-yl}pyrimidin-5-yl)-2H-indazol-2-yl]cyclohexyl}methyl)-2,3,5-trifluoro-4-hydroxybenzamide, trifluoroacetate salt] | 1.5 | 73%
4 | Cc1ccc(C(=O)N2CCN(C3COC4(CCN(c5ncc(-c6ccc7cn([C@H]8CC[C@H](CNC(=O)c9cc(F)c(O)c(F)c9F)CC8)nc7c6)cn5)CC4)C3)CC2)cc1N1CCC(=O)NC1=O (some centres unmarked) [Example 59, N-{[(1r,4r)-4-{6-[2-(3-{4-[3-(2,4-dioxo-1,3-diazinan-1-yl)-4-methylbenzoyl]piperazin-1-yl}-1-oxa-8-azaspiro[4.5]decan-8-yl)pyrimidin-5-yl]-2H-indazol-2-yl}cyclohexyl]methyl}-2,3,5-trifluoro-4-hydroxybenzamide, trifluoroacetate salt] | 1 | 80%
5 | O=C1CCN(c2cnn3cc(CCCN4CCN(c5nccc(-c6nc([C@]78CC[C@](CNC(=O)c9cc(F)c(O)c(F)c9F)(CC7)CC8)no6)n5)CC4)ccc23)C(=O)N1 [Example 61, N-[(4-{5-[2-(4-{3-[3-(2,4-dioxo-1,3-diazinan-1-yl)pyrazolo[1,5-a]pyridin-6-yl]propyl}piperazin-1-yl)pyrimidin-4-yl]-1,2,4-oxadiazol-3-yl}bicyclo[2.2.2]octan-1-yl)methyl]-2,3,5-trifluoro-4-hydroxybenzamide, trifluoroacetate salt] | 2.6 | 72%
6 | Cc1ccc(C(=O)N2CCC3(CC2)CCN(c2ncc(-c4ccc5cn([C@H]6CC[C@H](CNC(=O)c7cc(F)c(O)c(F)c7F)CC6)nc5c4)cn2)C3)cc1N1CCC(=O)NC1=O [Example 63, N-({(1r,4r)-4-[6-(2-{8-[3-(2,4-dioxo-1,3-diazinan-1-yl)-4-methylbenzoyl]-2,8-diazaspiro[4.5]decan-2-yl}pyrimidin-5-yl)-2H-indazol-2-yl]cyclohexyl}methyl)-2,3,5-trifluoro-4-hydroxybenzamide] | 2.6 | 80%
7 | Cc1ccc(C(=O)N2CCC3(CC2)C[C@@H](N2CCN(c4ncc(-c5ccc6cn([C@H]7CC[C@H](CNC(=O)c8cc(F)c(O)c(F)c8F)CC7)nc6c5)cn4)CC2)CO3)cc1N1CCC(=O)NC1=O [Example 68, N-{[(1r,4r)-4-{6-[2-(4-{(3R)-8-[3-(2,4-dioxo-1,3-diazinan-1-yl)-4-methylbenzoyl]-1-oxa-8-azaspiro[4.5]decan-3-yl}piperazin-1-yl)pyrimidin-5-yl]-2H-indazol-2-yl}cyclohexyl]methyl}-2,3,5-trifluoro-4-hydroxybenzamide, trifluoroacetate salt] | 1.7 | 79%
8 | O=C1CCN(c2cnn3cc(CN4CCN(c5cnc(-c6ccc7cn([C@H]8CC[C@H](CNC(=O)c9cc(F)c(O)c(F)c9F)CC8)nc7c6)cn5)CC4)ccc23)C(=O)N1 [Example 70, N-{[(1r,4r)-4-{6-[5-(4-{[3-(2,4-dioxo-1,3-diazinan-1-yl)pyrazolo[1,5-a]pyridin-6-yl]methyl}piperazin-1-yl)pyrazin-2-yl]-2H-indazol-2-yl}cyclohexyl]methyl}-2,3,5-trifluoro-4-hydroxybenzamide, trifluoroacetate salt] | 1.1 | 85%
9 | Cc1ccc(C(=O)N2CCC3(CC2)CC(N2CCN(c4cnc(-c5ccc6cn([C@H]7CC[C@H](CNC(=O)c8cc(F)c(O)c(F)c8F)CC7)nc6c5)cn4)CC2)CO3)cc1N1CCC(=O)NC1=O (some centres unmarked) [Example 71, N-{[(1r,4r)-4-{6-[5-(4-{8-[3-(2,4-dioxo-1,3-diazinan-1-yl)-4-methylbenzoyl]-1-oxa-8-azaspiro[4.5]decan-3-yl}piperazin-1-yl)pyrazin-2-yl]-2H-indazol-2-yl}cyclohexyl]methyl}-2,3,5-trifluoro-4-hydroxybenzamide, trifluoroacetate salt] | 2.4 | 76%
10 | Cc1ccc(C(=O)N2CCC3(CC2)CC(N2CCN(c4cnc(-c5ccc6cn([C@H]7CC[C@H](CNC(=O)c8cc(F)c(O)c(F)c8F)CC7)nc6c5)cn4)CC2)C3)cc1N1CCC(=O)NC1=O [Example 72, N-{[(1r,4r)-4-{6-[5-(4-{7-[3-(2,4-dioxo-1,3-diazinan-1-yl)-4-methylbenzoyl]-7-azaspiro[3.5]nonan-2-yl}piperazin-1-yl)pyrazin-2-yl]-2H-indazol-2-yl}cyclohexyl]methyl}-2,3,5-trifluoro-4-hydroxybenzamide, trifluoroacetate salt] | 1.6 | 78%
11 | Cc1ccc(C(=O)N2CCC3(CC2)C[C@H](N2CCN(c4ncc(-c5ccc6cn([C@H]7CC[C@H](CNC(=O)c8cc(F)c(O)c(F)c8F)CC7)nc6c5)cn4)CC2)CO3)cc1N1CCC(=O)NC1=O [Example 73, N-{[(1r,4r)-4-{6-[2-(4-{(3S)-8-[3-(2,4-dioxo-1,3-diazinan-1-yl)-4-methylbenzoyl]-1-oxa-8-azaspiro[4.5]decan-3-yl}piperazin-1-yl)pyrimidin-5-yl]-2H-indazol-2-yl}cyclohexyl]methyl}-2,3,5-trifluoro-4-hydroxybenzamide, trifluoroacetate salt] | 0.96 | 76%
12 | Cc1ccc(C(=O)N2CCC3(CC2)CC(N2CCN(c4ccc5cn([C@H]6CC[C@H](CNC(=O)c7cc(F)c(O)c(F)c7F)CC6)nc5c4)CC2)C3)cc1N1CCC(=O)NC1=O [Example 82, N-({(1r,4r)-4-[6-(4-{7-[3-(2,4-dioxo-1,3-diazinan-1-yl)-4-methylbenzoyl]-7-azaspiro[3.5]nonan-2-yl}piperazin-1-yl)-2H-indazol-2-yl]cyclohexyl}methyl)-2,3,5-trifluoro-4-hydroxybenzamide, trifluoroacetate salt] | 2 | 74%
13 | O=C1CCN(c2cc(C(=O)N3CCC(CN4CCN(c5ncc(-c6ccc7cn([C@H]8CC[C@H](CNC(=O)c9cc(F)c(O)c(F)c9F)CC8)nc7c6)cn5)CC4)CC3)ccc2Cl)C(=O)N1 [Example 89, N-{[(1r,4r)-4-(6-{2-[4-({1-[4-chloro-3-(2,4-dioxo-1,3-diazinan-1-yl)benzoyl]piperidin-4-yl}methyl)piperazin-1-yl]pyrimidin-5-yl}-2H-indazol-2-yl)cyclohexyl]methyl}-2,3,5-trifluoro-4-hydroxybenzamide, formate salt] | 3 | 77%
14 | Cc1ccc(C(=O)N2CCN(C3CCN(c4ncc(-c5ccc6cn([C@H]7CC[C@H](CNC(=O)c8cc(F)c(O)c(F)c8F)CC7)nc6c5)cn4)CC3)CC2)cc1N1CCC(=O)NC1=O [Example 90, N-{[(1r,4r)-4-{6-[2-(4-{4-[3-(2,4-dioxo-1,3-diazinan-1-yl)-4-methylbenzoyl]piperazin-1-yl}piperidin-1-yl)pyrimidin-5-yl]-2H-indazol-2-yl}cyclohexyl]methyl}-2,3,5-trifluoro-4-hydroxybenzamide] | 6.1 | 60* %
15 | Cc1ccc(C(=O)N2CCN(CCOc3ncc(-c4ccc5cn(C67CCC(CNC(=O)c8cc(F)c(O)c(F)c8F)(CC6)CC7)nc5c4)cn3)CC2)cc1N1CCC(=O)NC1=O [Example 91, N-[(4-{6-[2-(2-{4-[3-(2,4-dioxo-1,3-diazinan-1-yl)-4-methylbenzoyl]piperazin-1-yl}ethoxy)pyrimidin-5-yl]-2H-indazol-2-yl}bicyclo[2.2.2]octan-1-yl)methyl]-2,3,5-trifluoro-4-hydroxybenzamide] | 3.2 | 73%
16 | Cc1ccc(C(=O)N2CCC3(CCC(c4nc(-c5ccc6cn([C@H]7CC[C@H](CNC(=O)c8cc(F)c(O)c(F)c8F)CC7)nc6c5)no4)CC3)CC2)cc1N1CCC(=O)NC1=O [Example 96, N-({(1r,4r)-4-[6-(5-{3-[3-(2,4-dioxo-1,3-diazinan-1-yl)-4-methylbenzoyl]-3-azaspiro[5.5]undecan-9-yl}-1,2,4-oxadiazol-3-yl)-2H-indazol-2-yl]cyclohexyl}methyl)-2,3,5-trifluoro-4-hydroxybenzamide] | 2.7 | 81%
